According to the supplement of paper PMC4977894:
± gives the standard deviation of the averaged measurements.

Columns and labels:
[1] = tested on: Homo sapiens (human subject panel, olfactory perception); assay: perceived odor familiarity rating (rating 0-100); higher = more familiar
Description: (§1)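 Human olfactory psychophysics. 55 healthy subjects (after excluding 6 low performers) sniffed 1 mL of each odorant diluted in paraffin oil (vials, two dilutions per molecule, 20 molecules presented twice). Each subject rated intensity, pleasantness and familiarity on a 0-100 slider, starting at 50 and required to move. Ratings were given only when the subject reported detecting a smell; per-subject ratings are averaged over subjects.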

[2] = tested on: Homo sapiens (human subject panel, olfactory perception); assay: perceived odor pleasantness rating (rating 0-100); higher = more pleasant
Description: as §1

[3] = tested on: Homo sapiens (human subject panel, olfactory perception); assay: perceived odor intensity rating (rating 0-100); higher = stronger perceived smell
Description: as §1

[4] = odor dilution in paraffin oil: 1/1,000
[5] = odor dilution in paraffin oil: 1/100,000
[6] = odor dilution in paraffin oil: 1/10
[7] = odor dilution in paraffin oil: 1/10,000,000

| Structure (SMILES) | perceived odor familiarity rating [1, 4] | perceived odor familiarity rating [1, 5] | perceived odor pleasantness rating [2, 4] | perceived odor pleasantness rating [2, 5] | perceived odor intensity rating [3, 4] | perceived odor intensity rating [3, 5] | perceived odor familiarity rating [1, 6] | perceived odor pleasantness rating [2, 6] | perceived odor intensity rating [3, 6] | perceived odor familiarity rating [1, 7] | perceived odor pleasantness rating [2, 7] | perceived odor intensity rating [3, 7] |
| --- | --- | --- | --- | --- | --- | --- | --- | --- | --- | --- | --- | --- |
| COC(=O)c1ccco1 [methyl 2-furoate] | 43.2 ± 29 | 39.5 ± 28 | 37.2 ± 24 | 48.7 ± 22 | 62.6 ± 25 | 33.8 ± 34 |  |  |  |  |  |  |
| NCCc1ccccc1 [Phenethylamine] | 46.8 ± 34 | 38.8 ± 26 | 29.1 ± 28 | 48 ± 25 | 62.9 ± 34 | 22.8 ± 26 |  |  |  |  |  |  |
| C1CCNCC1 [Piperidine] | 53.6 ± 36 | 39.4 ± 29 | 13.2 ± 18 | 48.2 ± 24 | 76.5 ± 24 | 28.6 ± 31 |  |  |  |  |  |  |
| CC1CCC(=O)C1=O (stereo unspecified) [Methylcyclopentenolone] | 52.5 ± 34 |  | 44.6 ± 30 |  | 72 ± 26 |  | 63 ± 33 | 35.8 ± 32 | 84.7 ± 18 |  |  |  |
| CC=O [acetaldehyde] | 37.4 ± 29 | 41.4 ± 31 | 45 ± 22 | 54 ± 24 | 40.5 ± 31 | 21.8 ± 26 |  |  |  |  |  |  |
| CC(=O)OCC(C)C [isobutyl acetate] | 72.1 ± 24 | 39.2 ± 27 | 56 ± 28 | 50 ± 22 | 75.9 ± 22 | 33.5 ± 30 |  |  |  |  |  |  |
| C/C=C/c1ccc(OC)c(OC)c1 [methyl isoeugenol] | 48.2 ± 31 | 30.1 ± 24 | 58.8 ± 26 | 39.5 ± 23 | 37.9 ± 31 | 25.4 ± 35 |  |  |  |  |  |  |
| CCCCC(=O)O [valeric acid] |  | 31.6 ± 29 |  | 24.7 ± 22 |  | 47.2 ± 29 |  |  |  | 45.2 ± 34 | 37.5 ± 23 | 34.9 ± 32 |
| CCCCC/C=C\C/C=C\CCCCCCCC(=O)O [Linoleic acid (replicate)] | 53.2 ± 30 |  | 31.7 ± 20 |  | 66.6 ± 26 |  | 46.6 ± 35 | 20.4 ± 24 | 91.6 ± 11 |  |  |  |
| O=C(O)C(O)C(O)C(=O)O (racemic) [DL-Tartaric acid] | 26.4 ± 28 |  | 52.1 ± 19 |  | 26.4 ± 30 |  | 40.5 ± 25 | 48.3 ± 20 | 30.6 ± 30 |  |  |  |
| C=CCCCCCC [1-Octene] | 42.9 ± 28 | 45.6 ± 31 | 39.1 ± 24 | 48 ± 26 | 39.7 ± 29 | 33.6 ± 30 |  |  |  |  |  |  |
| CCc1nc(C)cs1 [2-Ethyl-4-methylthiazole] | 43.6 ± 30 | 45.6 ± 29 | 16.6 ± 19 | 33.6 ± 24 | 87 ± 15 | 73.1 ± 21 |  |  |  |  |  |  |
| CCCOC(=O)CC [Propyl propionate] | 50.4 ± 32 | 33.7 ± 27 | 44.4 ± 26 | 48.7 ± 25 | 72.1 ± 21 | 22.9 ± 25 |  |  |  |  |  |  |
| CCCCCC(C)=O [2-heptanone] | 52.7 ± 29 | 23.9 ± 22 | 53.8 ± 25 | 51.9 ± 26 | 71.1 ± 22 | 25.4 ± 27 |  |  |  |  |  |  |
| NCCCC[C@H](N)C(=O)O [L-Lysine] | 48.9 ± 31 |  | 27.4 ± 22 |  | 59.1 ± 30 |  | 45.4 ± 34 | 18.5 ± 24 | 81.7 ± 22 |  |  |  |
| c1coc(Cn2cccc2)c1 [1-Furfurylpyrrole] | 40.7 ± 32 | 34.3 ± 25 | 28.7 ± 24 | 46.8 ± 19 | 76.3 ± 22 | 30.9 ± 29 |  |  |  |  |  |  |
| II [Iodine] | 41 ± 37 |  | 51.6 ± 30 |  | 32.4 ± 30 |  | 48.4 ± 33 | 13.7 ± 22 | 77.7 ± 29 |  |  |  |
| CCCCCC(=O)OCC [ethyl hexanoate] | 69.4 ± 27 | 56.4 ± 29 | 78.6 ± 19 | 71.6 ± 16 | 73.9 ± 20 | 53.3 ± 28 |  |  |  |  |  |  |

| Structure (SMILES) | perceived odor familiarity rating [1, 4] | perceived odor familiarity rating [1, 5] | perceived odor pleasantness rating [2, 4] | perceived odor pleasantness rating [2, 5] | perceived odor intensity rating [3, 4] | perceived odor intensity rating [3, 5] | perceived odor familiarity rating [1, 6] | perceived odor pleasantness rating [2, 6] | perceived odor intensity rating [3, 6] | perceived odor familiarity rating [1, 7] | perceived odor pleasantness rating [2, 7] | perceived odor intensity rating [3, 7] |
| --- | --- | --- | --- | --- | --- | --- | --- | --- | --- | --- | --- | --- |
| C/C=C/c1ccc2c(c1)OCO2 [Isosafrole] | 56.4 ± 30 | 29 ± 28 | 59.6 ± 24 | 54.6 ± 18 | 44.7 ± 30 | 14.4 ± 15 |  |  |  |  |  |  |
| COC(=O)CCSC [Methyl 3-(methylthio)propionate] |  | 31 ± 25 |  | 41 ± 21 |  | 25.6 ± 28 |  |  |  | 40.3 ± 32 | 43.2 ± 26 | 27.7 ± 30 |
| COC(OC)c1ccccc1 [Benzaldehyde dimethyl acetal] | 41.5 ± 31 | 38.7 ± 29 | 35 ± 24 | 49.9 ± 24 | 68.6 ± 24 | 29.2 ± 25 |  |  |  |  |  |  |
| CCc1cnccn1 [2-ethyl pyrazine] | 55.8 ± 34 | 34.8 ± 27 | 37.2 ± 30 | 47 ± 21 | 80 ± 19 | 31.4 ± 25 |  |  |  |  |  |  |
| O=C(/C=C/C=C/c1ccc2c(c1)OCO2)N1CCCCC1 [Piperine] | 20.9 ± 26 |  | 44.9 ± 29 |  | 19.4 ± 27 |  | 49.2 ± 31 | 51.5 ± 26 | 54.1 ± 29 |  |  |  |
| CC(=O)OCCC(C)C [isopentyl acetate] | 55.5 ± 32 | 51 ± 35 | 59.3 ± 25 | 65.2 ± 23 | 58.3 ± 31 | 45.9 ± 30 |  |  |  |  |  |  |
| O=C(O)CC(O)(CC(=O)O)C(=O)O [Citric acid] | 28.5 ± 31 |  | 46.7 ± 28 |  | 14.7 ± 22 |  | 33.9 ± 30 | 51.7 ± 26 | 27.4 ± 28 |  |  |  |
| CCC(=O)O [propionic acid] |  | 35.3 ± 31 |  | 39.5 ± 25 |  | 34.4 ± 33 |  |  |  | 36.8 ± 25 | 45.2 ± 24 | 20.5 ± 27 |
| CC(C)CC(=O)O[C@@H]1C[C@H](C)CC[C@H]1C(C)C [Menthyl isovalerate] | 39.5 ± 27 | 35 ± 33 | 56.9 ± 25 | 49.4 ± 24 | 33.9 ± 28 | 18.6 ± 24 |  |  |  |  |  |  |
| CCCCCCCC(C)=O [2-Nonanone] | 52.3 ± 32 | 39.1 ± 31 | 60.3 ± 23 | 49.6 ± 23 | 58 ± 25 | 29.4 ± 30 |  |  |  |  |  |  |
| CCCCCCCO [heptanol] | 50.3 ± 30 | 44.9 ± 31 | 52.7 ± 25 | 59.6 ± 23 | 62.7 ± 27 | 30.3 ± 28 |  |  |  |  |  |  |
| CCCCCC1=C(C)CCC1=O [Dihydrojasmone] | 48.1 ± 28 | 42.9 ± 29 | 44.5 ± 26 | 48.5 ± 24 | 62.7 ± 28 | 44.3 ± 28 |  |  |  |  |  |  |
| C=CCOC(=O)CCC [Allyl butyrate] | 45.2 ± 31 | 49.2 ± 28 | 23.7 ± 24 | 33.2 ± 24 | 78.6 ± 20 | 54.3 ± 31 |  |  |  |  |  |  |
| C=CC(O)CCCC (stereo unspecified) [1-Hepten-3-ol] | 41 ± 31 | 44.4 ± 32 | 24.3 ± 25 | 37.3 ± 26 | 83.2 ± 18 | 53.7 ± 31 |  |  |  |  |  |  |
| N[C@@H](CC(=O)O)C(=O)O [Aspartic Acid] | 40 ± 30 |  | 35 ± 23 |  | 29.7 ± 30 |  | 46.6 ± 32 | 32.1 ± 28 | 63.6 ± 27 |  |  |  |
| CC(=O)c1ncc(C)nc1C [2-Acetyl-3,5(6)-dimethylpyrazine] | 58.6 ± 36 | 58.1 ± 31 | 31.5 ± 32 | 49.4 ± 29 | 85.4 ± 17 | 65.1 ± 26 |  |  |  |  |  |  |
| CCCC1CCOC(C)S1 (stereo unspecified) [2-Methyl-4-propyl-1,3-oxathiane] |  | 53.6 ± 33 |  | 38.8 ± 30 |  | 68.7 ± 25 |  |  |  | 27.9 ± 27 | 51 ± 26 | 22.7 ± 30 |
| C=CCc1ccc(OC)c(OC)c1 [4-allyl-1,2-dimethoxy benzene] | 45.6 ± 30 | 39.8 ± 29 | 54.4 ± 25 | 55.3 ± 24 | 37.5 ± 29 | 17.2 ± 21 |  |  |  |  |  |  |
